# Values of other authors in patent publication US9901098B2, “Methods for plant protection” (TDA Research, Inc, priority 2015, dated 2018).
structure (smiles),measurement,setting,value
"[O][Cl+][O-] [ClO2, chlorine dioxide]",concentration that effectively kills microbes,microbes; aqueous solutions,≤ 1 ppm
same,time required to kill microbes,microbes; solutions containing 1 ppm ClO2 or less,as short as one minute
same,permissible exposure level (PEL) in air,human workers,0.1 ppm
